Literature values, collected in US20160331734A1, “SUBSTITUTED N-ARYL PYRIDINONES” (AUSPEX PHARMACEUTICALS, INC., priority 2014, published 2016).

Legend:
[1] = humans

Cc1ccc(=O)n(-c2ccccc2)c1 [Pirfenidone, 5-Methyl-1-phenylpyridin-2(1H)-one]
DNA synthesis (leiomyoma cells): inhibits DNA synthesis
DNA synthesis (myometrial cells): inhibits DNA synthesis
half-life [1]: very short
